Measured values reported in patent US8933195B2, “Histone deacetylase inhibitors and synthetic method thereof and use thereof in manufacture of medicaments” (Nanjing Yoko Biomedical R & D Ltd., priority 2011, dated 2015).
One block for each compound: values may come before it.

Assays:
Incap = test: MTT cancer cell growth inhibition; type: cell-based; conditions: 72 h
[1] = system: human colon cancer HCT-116; test: Subcutaneously transplanted tumors in nude mice; type: in vivo, BALB/cA nude mice; parameters: key to RTV (mean ± SD): RTV = Vt/V0, tumor volume at time t over volume at d0; conditions: for RTV (mean ± SD) / TV (mean ± SD) d21: d21
Protocol: The solvents are isopropanol and anhydrous ethanol (mixed in the volume ratio of 1:1). The test sample is dissolved with solvents and physiological saline in the ratio of 1:1 for use, and the above solvents and physiological saline are dissolved in the ratio of 1:1 as a negative control.
The number of mice in each group: 12 mice in the negative control group, and 6 mice in the administration group.
The cell strains are inoculated to the right axilla subcutaneous layer of the nude mice, with 5×10^6 per mouse. After formed, the transplanted tumors are passed down two generations in the nude mice and then used.
Tumor tissues in the vigorous growth period are cut into about 1.5 mm^3, and inoculated to the right axilla subcutaneous layer of the nude mice under aseptic conditions. For the subcutaneously transplanted tumors of the nude mice, the diameter of the transplanted tumors is measured by a vernier caliper. The mice are randomly grouped after the tumors grow to 100-200 mm^3. […] The diameter of the transplanted tumors is measured twice per week in the whole experimental process, and meanwhile the weight of the mice is weighed. The calculation formula of tumor volume (TV) is TV=½×a×b^2, where a and b represent length and width, respectively.
The relative tumor volume (RTV) is calculated according to the measured results, with the following calculation formula: RTV=Vt/V0, where V0 is the tumor volume obtained by measurement during administration in different cages (i.e., d0), Vt is the tumor volume obtained by measurement at each time. […] (Wc−WT)Wc×100%, where Wc is the tumor weight of the control group, and WT is the tumor weight of the treatment group.

HDAC7 = target: T1, HDAC7 (Homo sapiens, UniProt Q8WUI4); test: Measurement of biochemical activities of HDAC (fluorescently-labeled acetylated lysine substrate)
T1 sequence (Q8WUI4 1-952): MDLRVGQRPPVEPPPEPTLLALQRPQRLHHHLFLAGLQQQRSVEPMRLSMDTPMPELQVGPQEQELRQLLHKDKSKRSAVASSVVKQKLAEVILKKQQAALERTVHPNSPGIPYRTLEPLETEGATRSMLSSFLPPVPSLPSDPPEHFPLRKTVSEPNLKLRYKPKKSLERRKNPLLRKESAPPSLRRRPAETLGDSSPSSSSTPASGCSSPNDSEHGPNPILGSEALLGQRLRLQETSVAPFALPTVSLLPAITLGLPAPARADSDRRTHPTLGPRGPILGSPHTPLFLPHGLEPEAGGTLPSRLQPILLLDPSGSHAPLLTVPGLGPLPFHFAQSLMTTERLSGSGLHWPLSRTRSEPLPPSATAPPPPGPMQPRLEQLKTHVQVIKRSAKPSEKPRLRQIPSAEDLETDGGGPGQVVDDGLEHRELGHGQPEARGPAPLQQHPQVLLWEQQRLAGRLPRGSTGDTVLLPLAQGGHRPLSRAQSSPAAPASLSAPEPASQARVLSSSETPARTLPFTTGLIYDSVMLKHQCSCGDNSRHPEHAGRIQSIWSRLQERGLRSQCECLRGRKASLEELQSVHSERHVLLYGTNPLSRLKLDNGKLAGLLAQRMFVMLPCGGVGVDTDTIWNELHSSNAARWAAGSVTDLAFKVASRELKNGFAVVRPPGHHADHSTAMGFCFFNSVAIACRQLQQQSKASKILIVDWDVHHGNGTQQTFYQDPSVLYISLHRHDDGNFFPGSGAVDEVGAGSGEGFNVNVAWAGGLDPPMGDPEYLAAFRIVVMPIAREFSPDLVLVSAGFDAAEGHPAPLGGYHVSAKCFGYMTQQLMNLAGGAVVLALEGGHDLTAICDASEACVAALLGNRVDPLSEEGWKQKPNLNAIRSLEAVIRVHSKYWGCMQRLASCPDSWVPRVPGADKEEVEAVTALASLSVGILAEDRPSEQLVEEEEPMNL
Method in brief: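 For both HDAC isoforms, fluorescent acetyl-lysine substrate ([…] in reaction) incubated with enzyme and compounds for 30 min at 37; developer then added for 15 min at room temperature. Fluorescence read at excitation 360 nm, emission 460 nm.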

[2] = Table 2.1, 20 mg/kg q3d × 3w iv

Compound: O=C(CCCCCCC(=O)Nc1ccccc1)NO [SAHA, suberoylanilide hydroxamic acid, reference compound]
GI50 (Incap): 4560 nM
TV (mean ± SD) d0 ([1]; Table 1.1, 50 mg/kg qd × 3w iv): 116 ± 27 mm^3
Weight d0 ([1]; Table 1.1, 50 mg/kg qd × 3w iv): 16.6 g
RTV (mean ± SD) ([1]; Table 1.1, 50 mg/kg qd × 3w iv): 4.87 ± 1.68
TV (mean ± SD) d21 ([1]; Table 1.1, 50 mg/kg qd × 3w iv): 566 ± 221 mm^3
Tumor Volume TV (mean ± SD) d 0 ([1]; Table 1.2, 50 mg/kg): 116 ± 27 mm^3
Tumor Volume TV (mean ± SD) d 3 ([1]; Table 1.2, 50 mg/kg): 146 ± 38 mm^3
Tumor Volume TV (mean ± SD) d 7 ([1]; Table 1.2, 50 mg/kg): 191 ± 25 mm^3
Tumor Volume TV (mean ± SD) d 10 ([1]; Table 1.2, 50 mg/kg): 283 ± 41 mm^3
Tumor Volume TV (mean ± SD) d 14 ([1]; Table 1.2, 50 mg/kg): 326 ± 45 mm^3
Tumor Volume TV (mean ± SD) d 17 ([1]; Table 1.2, 50 mg/kg): 417 ± 140 mm^3
Weight (mean ± SD) d 0 ([1]; Table 1.3, 50 mg/kg): 16.6 ± 1.5 g
Weight (mean ± SD) d 3 ([1]; Table 1.3, 50 mg/kg): 15.9 ± 1.5 g
Weight (mean ± SD) d 7 ([1]; Table 1.3, 50 mg/kg): 14.9 ± 1.8 g
Weight (mean ± SD) d 10 ([1]; Table 1.3, 50 mg/kg): 14.6 ± 1.4 g
Weight (mean ± SD) d 14 ([1]; Table 1.3, 50 mg/kg): 14.1 ± 1.3 g
Weight (mean ± SD) d 17 ([1]; Table 1.3, 50 mg/kg): 13.6 ± 1.3 g
Weight (mean ± SD) d 21 ([1]; Table 1.3, 50 mg/kg): 13.3 ± 1.1 g
TV (mean ± SD) d0 ([1]; Table 2.1, 50 mg/kg qd × 3w iv): 118 ± 25 mm^3
Weight d0 ([1]; Table 2.1, 50 mg/kg qd × 3w iv): 16.9 g
RTV (mean ± SD) ([1]; Table 2.1, 50 mg/kg qd × 3w iv): 4.54 ± 1.72
TV (mean ± SD) d21 ([1]; Table 2.1, 50 mg/kg qd × 3w iv): 536 ± 203 mm^3
Tumor Volume TV (mean ± SD) d 0 ([1]; Table 2.2, 50 mg/kg): 120 ± 25 mm^3
Tumor Volume TV (mean ± SD) d 3 ([1]; Table 2.2, 50 mg/kg): 146 ± 36 mm^3
Tumor Volume TV (mean ± SD) d 7 ([1]; Table 2.2, 50 mg/kg): 189 ± 20 mm^3
Tumor Volume TV (mean ± SD) d 10 ([1]; Table 2.2, 50 mg/kg): 263 ± 33 mm^3
Tumor Volume TV (mean ± SD) d 14 ([1]; Table 2.2, 50 mg/kg): 300 ± 35 mm^3
Tumor Volume TV (mean ± SD) d 17 ([1]; Table 2.2, 50 mg/kg): 402 ± 146 mm^3
Weight (mean ± SD) d 0 ([1]; Table 2.3, 50 mg/kg): 16.8 ± 1.0 g
Weight (mean ± SD) d 3 ([1]; Table 2.3, 50 mg/kg): 15.7 ± 1.2 g
Weight (mean ± SD) d 7 ([1]; Table 2.3, 50 mg/kg): 14.9 ± 1.6 g
Weight (mean ± SD) d 10 ([1]; Table 2.3, 50 mg/kg): 14.6 ± 1.5 g
Weight (mean ± SD) d 14 ([1]; Table 2.3, 50 mg/kg): 14.2 ± 1.4 g
Weight (mean ± SD) d 17 ([1]; Table 2.3, 50 mg/kg): 13.8 ± 1.3 g
Weight (mean ± SD) d 21 ([1]; Table 2.3, 50 mg/kg): 13.4 ± 1.1 g
IC50 HDAC7 (HDAC7): no activity

GI50 (Incap): 200 nM
Weight d0 [1, 2]: 16.6 g
Weight (mean ± SD) d 0 ([1]; Table 2.3, 20 mg/kg): 16.6 ± 1.2 g
Weight (mean ± SD) d 3 ([1]; Table 2.3, 20 mg/kg): 16.2 ± 1.4 g
Weight (mean ± SD) d 7 ([1]; Table 2.3, 20 mg/kg): 14.8 ± 1.2 g
Weight (mean ± SD) d 10 ([1]; Table 2.3, 20 mg/kg): 14.5 ± 1.0 g
Weight (mean ± SD) d 14 ([1]; Table 2.3, 20 mg/kg): 13.8 ± 0.9 g
Weight (mean ± SD) d 17 ([1]; Table 2.3, 20 mg/kg): 13.3 ± 0.9 g
Weight (mean ± SD) d 21 ([1]; Table 2.3, 20 mg/kg): 13.0 ± 1.0 g
IC50 HDAC7 (HDAC7): no activity
Compound: C/C=C1\NC(=O)c2csc(n2)CNC(=O)C[C@@H](/C=C/CCSC(=O)CCCCCCC)OC(=O)[C@H](C)NC1=O [Compound 1-4]
1-T/C tumor inhibition rate ([1]; Table 2.1, 20 mg/kg q3d × 3w iv, after three weeks): 74.46%
TV (mean ± SD) d0 [1, 2]: 116 ± 23 mm^3
RTV (mean ± SD) [1, 2]: 2.65 ± 1.70
TV (mean ± SD) d21 [1, 2]: 308 ± 198 mm^3
Tumor Volume TV (mean ± SD) d 0 ([1]; Table 2.2, 20 mg/kg): 118 ± 23 mm^3
Tumor Volume TV (mean ± SD) d 3 ([1]; Table 2.2, 20 mg/kg): 126 ± 12 mm^3
Tumor Volume TV (mean ± SD) d 7 ([1]; Table 2.2, 20 mg/kg): 157 ± 26 mm^3
Tumor Volume TV (mean ± SD) d 10 ([1]; Table 2.2, 20 mg/kg): 189 ± 52 mm^3
Tumor Volume TV (mean ± SD) d 14 ([1]; Table 2.2, 20 mg/kg): 234 ± 103 mm^3
Tumor Volume TV (mean ± SD) d 17 ([1]; Table 2.2, 20 mg/kg): 262 ± 132 mm^3
